The text below walks through data of publication PMC6274772, “Guided Evolution of Recombinant Bombyx mori Acetylcholinesterase II by Homology Modeling to Change Pesticide Sensitivity” (International Journal of Molecular Sciences, 2018).

SMILES strings stand for the structures. pIC50: −log10 of the molar value. Like-named read-outs stand apart in the source and are kept apart here.

For test [1], the target named is T1, rBmAChE II (recombinant Bombyx mori type II acetylcholinesterase) (Bombyx mori, UniProt B0FGT2, Y398W).
T1 construct: gene ace2
The following applies: crude enzyme supernatant, substrate acetylthiocholine iodide (ATChI), DTNB, 50 mM phosphate, 37 °C, covalent.

Test [2] has as its target T2, rBmAChE II (recombinant Bombyx mori type II acetylcholinesterase) (Bombyx mori, UniProt B0FGT2, Y398F).
T2 construct: gene ace2
The following applies: crude enzyme supernatant; substrate acetylthiocholine iodide (ATChI), DTNB, 50 mM phosphate, 37 °C; covalent.

Test [3] addresses T3, rBmAChE II (recombinant Bombyx mori type II acetylcholinesterase) (Bombyx mori, UniProt B0FGT2, Y398G).
T3 construct: gene ace2
The settings on record: crude enzyme supernatant; substrate acetylthiocholine iodide (ATChI), DTNB, 50 mM phosphate, 37 °C; covalent.

Test [4] addresses T4, rBmAChE II (recombinant Bombyx mori type II acetylcholinesterase) (Bombyx mori, UniProt B0FGT2).
T4 construct: gene ace2; predicted N-terminal signal peptide removed, codon-optimized, pPIC9K in Pichia pastoris GS115, secreted; crude culture supernatant; 604 residues
Description: Ellman assay inhibition. The class given is biochemical. The settings on record: crude enzyme supernatant; substrate acetylthiocholine iodide (ATChI), DTNB, 50 mM phosphate, 37 °C; covalent. From the text: Ellman assay inhibition on rBmAChE II (recombinant Bombyx mori type II acetylcholinesterase) | inhibition of rBmAChE II mutants by various pesticides (malathion, methomyl, carbaryl, and carbofuran-3-hydroxy)
On the technique in general: In Ellman's method for cholinesterases, released thiocholine reacts with DTNB.

Test [5] concerns the target T4, rBmAChE II (recombinant Bombyx mori type II acetylcholinesterase). The class given is biochemical. The following applies: 30 µL (printed 30 mL) of 0.1 mg/mL physostigmine, 10 min preincubation at 37 °C; crude enzyme supernatant; ATChI substrate, DTNB, 50 mM phosphate.

T2 sequence (B0FGT2 entry or part of it Y398F): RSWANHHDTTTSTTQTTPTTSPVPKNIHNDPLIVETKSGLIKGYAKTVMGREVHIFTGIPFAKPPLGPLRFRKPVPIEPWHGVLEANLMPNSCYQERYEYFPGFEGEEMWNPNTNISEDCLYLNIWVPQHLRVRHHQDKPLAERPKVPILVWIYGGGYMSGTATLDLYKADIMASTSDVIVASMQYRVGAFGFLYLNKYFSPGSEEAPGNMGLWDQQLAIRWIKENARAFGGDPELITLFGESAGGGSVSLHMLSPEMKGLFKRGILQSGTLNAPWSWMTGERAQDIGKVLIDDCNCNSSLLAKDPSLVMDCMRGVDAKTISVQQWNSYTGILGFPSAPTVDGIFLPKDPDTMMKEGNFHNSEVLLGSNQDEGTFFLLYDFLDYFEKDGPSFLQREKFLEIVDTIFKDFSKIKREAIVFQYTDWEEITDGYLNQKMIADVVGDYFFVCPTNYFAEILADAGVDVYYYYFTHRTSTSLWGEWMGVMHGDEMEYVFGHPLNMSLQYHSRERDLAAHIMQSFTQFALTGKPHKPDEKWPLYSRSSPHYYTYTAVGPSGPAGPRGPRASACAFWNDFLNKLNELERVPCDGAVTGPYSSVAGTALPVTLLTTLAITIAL
T1 sequence (B0FGT2 entry or part of it Y398W): as the sequence (B0FGT2 entry or part of it Y398F) above, with F375W counted along it
T4 sequence (B0FGT2 entry or part of it): as the sequence (B0FGT2 entry or part of it Y398F) above, with F375Y counted along it
T3 sequence (B0FGT2 entry or part of it Y398G): as the sequence (B0FGT2 entry or part of it Y398F) above, with F375G counted along it

As usually defined, the pIC50 is the IC50 on a negative log10 scale, so that one unit is a factor of ten. As to `CNC(=O)Oc1cccc2ccccc12` [carbaryl], the pIC50 in test [1] is 7.80; in test [2] it was 7.68; in test [3] it was 7.25; in test [4], 7.48.
The corresponding values for `CNC(=O)Oc1cccc2c1OC(C)(C)C2O` (stereo not drawn) [carbofuran-3-hydroxy] are 6.61, 7.37, 6.71 and 7.12.
Take `CCOC(=O)CC(SP(=S)(OC)OC)C(=O)OCC` (stereo not drawn) [malathion]: the negative logarithm of the IC50 (pIC50) in test [1] (stated gain) is 5.27; in test [2] it was 5.95; in test [4], 5.55.
For the compound `CNC(=O)ON=C(C)SC` [methomyl], the pIC50 was 5.36 in test [1], 6.33 in test [2] and 6.12 in test [4].
Regarding `CNC(=O)Oc1ccc2c(c1)[C@]1(C)CCN(C)[C@@H]1N2C` [physostigmine], the “Ellman assay, remaining activity” value in test [5] is “All four enzyme variants could be inhibited by physostigmine”.
